Results on 25 compounds are retold here after patent US20080194546A1, “Pyrido-, Pyrazo- and Pyrimido-Pyrimidine Derivatives as mTOR Inhibitors” (KuDOS Pharmaceuticals Limited, priority 2005, published 2008).

recombinant mTOR (FLAG-tagged, amino acid residues 1362 to 2549), sequence (P42345 1362-2549): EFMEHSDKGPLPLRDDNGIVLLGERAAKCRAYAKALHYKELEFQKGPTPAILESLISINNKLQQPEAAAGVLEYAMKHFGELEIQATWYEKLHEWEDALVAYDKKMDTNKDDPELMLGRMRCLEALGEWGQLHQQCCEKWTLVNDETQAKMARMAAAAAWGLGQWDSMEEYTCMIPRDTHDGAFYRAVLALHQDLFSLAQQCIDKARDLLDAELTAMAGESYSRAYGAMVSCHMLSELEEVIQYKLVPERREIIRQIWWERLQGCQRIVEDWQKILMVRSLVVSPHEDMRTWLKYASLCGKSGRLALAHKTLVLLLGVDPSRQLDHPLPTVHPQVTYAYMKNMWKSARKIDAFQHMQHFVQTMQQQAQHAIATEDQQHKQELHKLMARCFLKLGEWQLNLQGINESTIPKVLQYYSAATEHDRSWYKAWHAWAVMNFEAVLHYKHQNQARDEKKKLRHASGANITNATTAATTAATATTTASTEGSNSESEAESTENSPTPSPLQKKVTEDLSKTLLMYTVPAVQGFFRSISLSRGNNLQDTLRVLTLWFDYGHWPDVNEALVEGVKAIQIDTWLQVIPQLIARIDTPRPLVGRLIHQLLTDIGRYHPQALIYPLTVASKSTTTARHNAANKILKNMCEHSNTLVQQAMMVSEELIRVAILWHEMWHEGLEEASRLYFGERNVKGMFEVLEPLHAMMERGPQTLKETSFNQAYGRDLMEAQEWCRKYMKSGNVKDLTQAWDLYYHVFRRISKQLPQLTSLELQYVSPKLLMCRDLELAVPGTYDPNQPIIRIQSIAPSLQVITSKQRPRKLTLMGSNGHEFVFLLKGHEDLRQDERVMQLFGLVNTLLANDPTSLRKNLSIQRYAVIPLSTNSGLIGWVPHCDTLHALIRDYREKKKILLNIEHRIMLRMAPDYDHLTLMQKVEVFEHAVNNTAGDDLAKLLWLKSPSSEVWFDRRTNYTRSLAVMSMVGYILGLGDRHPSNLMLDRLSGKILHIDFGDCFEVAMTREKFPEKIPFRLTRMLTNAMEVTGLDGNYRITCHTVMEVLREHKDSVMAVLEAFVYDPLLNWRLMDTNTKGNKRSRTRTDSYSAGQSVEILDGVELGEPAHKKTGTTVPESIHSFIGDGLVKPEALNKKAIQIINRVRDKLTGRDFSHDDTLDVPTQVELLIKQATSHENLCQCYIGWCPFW

The first assay concerns the target recombinant mTOR (FLAG-tagged, amino acid residues 1362 to 2549) (Homo sapiens, UniProt P42345). Nature of the assay: Alternative Enzyme Assay: AlphaScreen, inhibition of phosphorylation by recombinant mTOR. Particulars: Alternative Enzyme Assay, upper bounds; read-out: IC50 values against mTOR. In kind it is biochemical. In general terms: Alpha assays give light when donor and acceptor beads are brought close together.
Turning to `COCc1cccc(-c2nc(N3CCOCC3)c3ccc(-c4ccc(Cl)cc4)nc3n2)c1` [Example 9z], the IC50 (usually the concentration needed to halve the response being measured) was less than 10 µM.
On to `O=[N+]([O-])c1cccc(-c2nc(N3CCOCC3)c3ccc(-c4ccc(Cl)cc4)nc3n2)c1` [Example 9v], for which the IC50 is less than 10 µM.
As to `C[C@@H]1CN(c2nc(N3CCOCC3)c3ccc(-c4ccc(OCC5CCCO5)cc4)nc3n2)C[C@H](C)O1` (stereo partly shown) [Example 1bt], the IC50 is less than 1 µM.
As to `FC(F)(F)c1cccc(-c2nc(N3CCOCC3)c3ccc(-c4ccc(Cl)cc4)nc3n2)c1` [Example 9p], the IC50 is less than 1 µM.
Consider `COc1cccc(-c2nc(N3CCOCC3)c3ccc(-c4ccc(Cl)cc4)nc3n2)c1` [Example 9u], for which the half-maximal inhibitory concentration (IC50) was less than 10 µM.
With `C[C@@H]1CN(c2nc(N3CCOCC3)c3ccc(-c4ccc(OCC(C)(C)CO)cc4)nc3n2)C[C@H](C)O1` [Example 1bp], the half-inhibitory concentration (IC50) was less than 1 µM.
For `NC(=O)c1cccc(-c2nc(N3CCOCC3)c3ccc(-c4ccc(Cl)cc4)nc3n2)c1` [Example 9ac], the IC50 was less than 10 µM.
Consider `O=Cc1cccc(-c2nc(N3CCOCC3)c3ccc(-c4ccc(Cl)cc4)nc3n2)c1` [Example 9w], for which the IC50 was less than 10 µM.
Same read-out and setting: in the case of `C[C@@H]1CN(c2nc(N3CCOCC3)c3ccc(-c4ccc(OCCCO)cc4)nc3n2)C[C@H](C)O1` [Example 1bm] it was less than 1 µM; in that of `C[C@@H]1CN(c2nc(N3CCOCC3)c3ccc(-c4ccc(OCC(C)(C)C)cc4)nc3n2)C[C@H](C)O1` [Example 1bo], less than 1 µM.
On the same count and under the same terms, as for `C/C=C/COc1ccc(-c2ccc3c(N4CCOCC4)nc(N4C[C@@H](C)O[C@@H](C)C4)nc3n2)cc1` [Example 1bq], the figure is less than 1 µM; as for `N#Cc1cccc(-c2nc(N3CCOCC3)c3ccc(-c4ccc(Cl)cc4)nc3n2)c1` [Example 9ab], less than 10 µM.
As to `COc1ccc(-c2ccc3c(N4CCOCC4)nc(-c4ccc(OC)c(CO)c4)nc3n2)cc1CO` [Example 9q], the IC50 is less than 10 µM.
As to `COc1ccc(-c2ccc3c(N4CCOCC4)nc(-c4cc(C(=O)O)cc([N+](=O)[O-])c4)nc3n2)cc1CO` [Example 9b], the IC50 is less than 10 µM.
Take `Clc1ccc(-c2ccc3c(N4CCOCC4)nc(-c4ccco4)nc3n2)cc1` [Example 9x]: the IC50 was less than 10 µM.
With `COc1ccc(-c2ccc3c(N4CCOCC4)nc(-c4cccc([N+](=O)[O-])c4)nc3n2)cc1CO` [Example 9c], the IC50 was less than 10 µM.
The same measure, in the same setting: in the case of `CC(C)CCCOc1ccc(-c2ccc3c(N4CCOCC4)nc(N4C[C@@H](C)O[C@@H](C)C4)nc3n2)cc1` [Example 1bx] it was less than 10 µM; in that of `COc1ccc(-c2ccc3c(N4CCOCC4)nc(-c4cccc(CO)c4)nc3n2)cc1CO` [Example 9ae], less than 10 µM.

Still in this assay, the particulars now being: Alternative Enzyme Assay; read-out: IC50 values against mTOR.
On to `COc1ccc(-c2ccc3c(N4CCOCC4)nc(-c4cc(C(=O)O)cc([N+](=O)[O-])c4)nc3n2)cc1CO` [Example 9b], for which the IC50 was less than 0.3 µM.
The same measure, in the same setting: in the case of `COc1ccc(-c2ccc3c(N4CCOCC4)nc(-c4cccc([N+](=O)[O-])c4)nc3n2)cc1CO` [Example 9c] it was less than 0.3 µM.
Turning to `COc1ccc(-c2ccc3c(N4CCOCC4)nc(-c4cccc(CO)c4)nc3n2)cc1CO` [Example 9ae], the IC50 was less than 0.3 µM.

Another assay relates to phosphorylation of Serine 473 in Akt in MDA-MB-468 cells. Kind of assay: In Vitro phospho-Ser473 Akt Assay (Acumen Explorer). The format is cell-based. The conditions noted are these: Homo sapiens, MDA-MB-468, read-out: IC50 values against mTOR (phospho-Ser473 Akt assay).
In the case of `C[C@H]1COCCN1c1nc(N2CCC(c3ccncc3)CC2)nc2nc(-c3ccc(N)nc3)ccc12` [Example 12e], the IC50 was less than 11 µM.
Regarding `CC(C)Oc1ccc(-c2ccc3c(N4CCOC[C@@H]4C)nc(N4CCOC[C@@H]4C)nc3n2)cc1C(N)=O` [Example 11cw, 5-[2,4-bis-((S)-3-methyl-morpholin-4-yl)-pyrido[2,3-d]pyrimidin-7-yl]-2-isopropoxy-benzamide], the IC50 was less than 11 µM.
Consider `COc1cncc(-c2nc(N3CCOC[C@@H]3C)c3ccc(-c4cccc(CO)c4)nc3n2)c1` [Example 29s], for which the IC50 was less than 11 µM.
Still for that read-out and setting: as for `COc1ccc(CCNCc2cc(-c3ccc4c(N5CCOCC5C)nc(N5CCOC[C@@H]5C)nc4n3)ccc2OC)cc1` (stereo partly shown) [Example 14bd], the figure is less than 0.1 µM.
Turning to `C[C@H]1COCCN1c1nc(N2CCOC[C@@H]2C)c2ccc(-c3ccc(N)cc3)nc2n1` [Example 11az], the IC50 is less than 0.1 µM.
With `COc1ccc(-c2ccc3c(N4CCOC[C@@H]4C)nc(N4CCOC[C@@H]4C)nc3n2)cn1` [Example 11n], the IC50 is less than 0.3 µM.
`C[C@H]1CCCCN1c1nc(N2CCOC[C@@H]2C)c2ccc(-c3ccc(Cl)cc3)nc2n1` [Example 28de]: the IC50 was less than 11 µM.
